From patent US10842794B2, “Use of Sigma-1 receptor agonist compounds” (MTA TÁMOGATOTT KUTATÓCSOPORTOK IRODÁJA, priority 2014, dated 2020)

Assays:
NRK49F cells = experiment: Cell viability MTT assay in myofibroblasts; format: cell-based, rat; conditions: 24-hours treatment, commonly used doses 1-10 μM
[1] = test system: collagen I and collagen III mRNA in NRK49F cells; experiment: TGFβ-induced collagen-1 and collagen-3 production, quantitative RT-PCR; format: cell-based, rat; conditions: 20 μM/L fluvoxamine
[2] = test system: Streptozotocin induced type 1 diabetic rats; experiment: Rat model of streptozotocin induced diabetic nephropathy: metabolic and renal parameters; format: in vivo; conditions: for Blood Creatinine / Blood Glucose / Blood Urea Nitrogen / FeNa / Fructosamine / GFR / Urinary albumin excretion: Mean±SEM
Experimental: All substances were purchased from Sigma-Aldrich Ltd. (Budapest, Hungary). Diabetes was induced in male Wistar rats by 65 mg/bwkg streptozotocin (STZ) i.v. (dissolved in 0.1 M citrate buffer; pH 4.5). Animals were considered diabetic if blood glucose concentrations increased to 15 mmol/L within 72 h after STZ injection and remained elevated. Animals were randomly divided into groups (n=10-12/group) and received by per os (i) fluvoxamine (20 mg/bwkg/day) for 7 weeks; (ii) fluvoxamine (20 mg/bwkg/day) for 2 weeks from the 5th week of diabetes, (iii) fluvoxamine (2 mg/bwkg/day) for 2 weeks from the 5th week of diabetes; or (iv) vehicle (isotonic saline). […] Non-diabetic age-matched control animals were injected with citrate buffer and sacrificed after 7 weeks (n=8-10/group).
Before and during and at the end of treatment period rats were placed into metabolic cages to collect 24-hour urinary samples. After 2 weeks of treatment all rats were anesthesized, blood and urinary samples were collected and the kidneys were removed, weighed and a section fixed in formalin (4%, pH=7.4) for histology and the remained immediately snap-frozen for further investigations.
Serum metabolic (glucose, fructoseamine, total and HDL-cholesterol, triglycerides) and renal functional parameters from rat serum (sodium, potassium, creatinine, BUN, GFR and proteinuria) were determined with commercially available kits on a Hitachi 912 photometric chemistry analyzer. Random urine and 24-hour urine samples were also measured. Urinary protein to creatinine ratio was also calculated.

[3] = test system: Streptozotocin induced type 1 diabetic rats; experiment: Diabetic rat kidney: Masson's trichrome staining, tubulointerstitial fibrosis; format: in vivo
[4] = test system: Streptozotocin induced type 1 diabetic rats; experiment: Diabetic rat kidney: PAS staining, mesangial matrix expansion; format: in vivo
[5] = test system: Streptozotocin induced type 1 diabetic rats; experiment: Diabetic rat kidney: Sirius Red staining of ECM components; format: in vivo; conditions: long term 7-weeks fluvoxamine treatment
[6] = test system: Streptozotocin induced type 1 diabetic rats; experiment: Diabetic rat kidney: αSMA protein level, western blot; format: in vivo; conditions: fluvoxamine, predominantly the dose of 20 mg
[7] = test system: rat model of bleomycin-induced lung fibrosis; experiment: Rat model of bleomycin induced pulmonary fibrosis: αSMA protein in lung, western blot; format: in vivo; conditions: fluvoxamine 20 mg/bwkg/day, three weeks after bleomycin
Experimental: (Bars represent Mean±SEM, n=6/group).
For the induction of pulmonary fibrosis male Wistar rats were anesthetized. Bleomycin (5 mg/bwkg in a 300 μl solution of isotonic saline) or 300 μl isotonic saline was administered into the trachea using a 30G needle.
Animals were randomly divided into 4 groups of 6 rats each as follows (i)—control group was sham operated, received isotonic saline per os daily for 3 weeks, (ii) vehicle treated group: received isotonic saline per os daily for 3 weeks after the induction of lung fibrosis, (iii) fluvoxamine treated group: received fluvoxamine (20 mg/bwkg/day per os for 3 weeks after the induction of lung fibrosis), (iv) fluvoxamine+NE100 treated group: received fluvoxamine (20 mg/bwkg/day; per os) and 1 mg/bwkg/day NE100 (i.p. for 3 weeks after the induction of lung fibrosis. […]
Tissue samples were lysed in buffer containing leupeptin, aprotinin, Triton X-100, Tris-HCl, Ethylene glycol-bis (2-aminoethylether),N,N,N′,N′-tetraacetic-acid, NaF, Phenylmethylsulphonylfluoride and Na-orthovanadate (each substance were purchased from Sigma-Aldrich Co., St. Louis, Mo., USA) and centrifuged to pellet nuclei and large cellular fragments. Protein concentration of the supernatants was determined by Bradford assay (Bio-Rad Laboratories, Hercules, Calif., USA). […] Bands were analyzed with Quantity One software version 4.6.9. […]

[8] = test system: FN1, COL1A1 and MMP2 mRNA in HTM-5 cells; experiment: Fibrotic marker mRNA expression in HTM-5 cells (RT-PCR); format: cell-based, human; conditions: normalised to RN18S
[9] = test system: human trabecular meshwork-5 (HTM-5) cells; experiment: Actin cytoskeleton rearrangement in HTM-5 cells (phalloidin F-actin staining); format: cell-based; conditions: 24 h, 20 ng/mL PDGF and 10 μM FLU
[10] = D7FLU: diabetic rats, fluvoxamine 20 mg/bwkg/day per os for 7 weeks
[11] = D+FLU2: diabetic rats, fluvoxamine 2 mg/bwkg/day per os for 2 weeks from the 5th week of diabetes
[12] = D+FLU: diabetic rats, fluvoxamine 20 mg/bwkg/day per os for 2 weeks from the 5th week of diabetes

COCCCC/C(=N\OCCN)c1ccc(C(F)(F)F)cc1 [fluvoxamine, 2-{[(E)-{5-Methoxy-1-[4-(trifluoromethyl)phenyl]pentylidene}amino]oxy}ethanamine]
cytotoxicity / cell viability in myofibroblasts (NRK49F cells): not cytotoxic | mRNA expression of collagen-1 and collagen-3 ([1]; by 24 hours): remarkably diminished | collagen production (collagen-1 and collagen-3 mRNA) ([1]; by 48 hours): returned to the level of normal controls | Blood Creatinine [2, 10]: 27.0 ± 2.24 µmol/L | Blood Glucose [2, 10]: 50.31 ± 3.7 ^ mmol/L | Blood Urea Nitrogen [2, 10]: 17.3 ± 1.49 mmol/L | FeNa [2, 10]: 0.40 ± 0.03 % | Fructosamine [2, 10]: 276 ± 11.2 µmol/L | GFR [2, 10]: 6.77 ± 1.15 mL/min/100 g | Urinary albumin excretion [2, 10]: 20.8 ± 9.51 mg/mL | Blood Creatinine [2, 11]: 31.8 ± 2.94 µmol/L | Blood Glucose [2, 11]: 26.45 ± 3.11 mmol/L | Blood Urea Nitrogen [2, 11]: 18.8 ± 1.68 mmol/L | FeNa [2, 11]: 0.62 ± 0.12 % | Fructosamine [2, 11]: 242 ± 12.8^ μmol/L | GFR [2, 11]: 4.73 ± 0.69^ mL/min/100 g | Urinary albumin excretion [2, 11]: 24.3 ± 5.77^ mg/mL | Blood Creatinine [2, 12]: 34.5 ± 2.74 µmol/L | Blood Glucose [2, 12]: 36.6 ± 2.62 mmol/L | Blood Urea Nitrogen [2, 12]: 17.3 ± 2.30 mmol/L | FeNa [2, 12]: 0.90 ± 0.23 % | Fructosamine [2, 12]: 252 ± 18.5^ μmol/L | GFR [2, 12]: 3.73 ± 0.49^ mL/min/100 g | Urinary albumin excretion [2, 12]: 21.5 ± 4.99 mg/mL | renal function in diabetic rats ([2]; fluvoxamine treatment, specifically the long-term (7-weeks) treatment): remarkably improved renal function, prevented GFR decline | diabetes induced tubulointerstitial fibrosis (Masson's trichrome) ([3]; fluvoxamine 20 mg 7 weeks, 20 mg 2 weeks, 2 mg 2 weeks per os): ameliorated the diabetes induced tubulointerstitial fibrosis | renal structure (Masson's trichrome) ([3]; long-term (7-weeks) fluvoxamine 20 mg/bwkg/day): restored almost the normal renal structure | extent of mesangial matrix expansion (PAS) ([4]; all doses of fluvoxamine): remarkably diminished | prevention of renal tissue damage (PAS), comparison of regimens ([4]; long-term (7-weeks) fluvoxamine treatment): most effective in preventing renal tissue damage | diabetes induced excessive ECM accumulation (Sirius Red) [5]: significantly reduced | αSMA protein level in kidney of diabetic rats [6]: reduced αSMA protein level by the half | bleomycin-induced αSMA production in the lung [7]: successfully reduced bleomycin-induced αSMA production nearly to the level of controls | COL1A1 (collagen1a1) mRNA expression ([8]; 20 ng/ml PDGF plus 5 μM FLU): inhibit the expression of each fibrosis marker tested in a dose dependent manner | FN1 (fibronectin) mRNA expression ([8]; 20 ng/ml PDGF plus 5 μM FLU): inhibit the expression of each fibrosis marker tested in a dose dependent manner | MMP2 (matrix metalloproteinase 2) mRNA expression ([8]; 20 ng/ml PDGF plus 10 μM FLU): inhibit the expression of each fibrosis marker tested in a dose dependent manner | fibrotic rearrangement and active production of actin filaments [9]: blocked
